According to patent US7643943B2, “Methods for monitoring drug activities in vivo” (Wyeth LLC, priority 2003, dated 2010):

Legend:
[1] = Pharmacokinetics of CCI-779 in patients with cancer following intravenous administration; conditions: human, whole blood
Text: The pharmacokinetics of CCI-779 is being studied in patients with cancer receiving CCI-779 either alone or in combination with other chemotherapeutic agents following intravenous administration. Intravenous dosage schedules previously investigated include a cyclical schedule (daily for 5 days every two weeks) and a once-weekly regimen. […] The following examples evaluated the safety, efficacy, and pharmacokinetic/pharmacodynamic relationship to clinical response of three doses of CCI-779, when administered to patients with advanced, refractory renal cell cancer (RCC).

[2] = test system: transcripts in patient PBMCs; assay: Spearman's rank correlation of changes in PBMC gene expression (HgU95A arrays) with cumulative AUCsum; assay type: in vivo, human; conditions: change in PBMC expression from baseline
Text: Consent for the pharmacogenomic portion of the clinical study was received and the project was approved by the local Institutional Review Boards at the participating clinical sites. Blood samples for pharmacogenomic characterization were drawn into cell purification tubes (CPT, Becton Dickinson) prior to therapy and following approximately 8 and 16 weeks of treatment. All blood samples were shipped overnight to the Wyeth Department of Molecular Medicine in Andover, Mass., and PBMCs were isolated from the whole blood samples (8 mL) in CPT tubes according to the manufacturer's procedure. For expression profiling analyses, total RNA was isolated from PBMC pellets using the RNeasy mini kit (Qiagen, Valencia, Calif.) and labeled probe for oligonucleotide arrays was prepared using a modification of the procedure described by Lockhart, et al., NAT. BIOTECHNOL., 14:1675-1680 (1996). […] The “average difference” values for each transcript were normalized to “frequency” values using the scaled frequency normalization method (Hill, et al, GENOME BIOL. 2:research0055.1-0055.13 (2001)) in which the average differences for 11 control cRNAs with known abundance spiked into each hybridization solution were used to generate a global calibration curve. This calibration was then used to convert average difference values for all transcripts to frequency estimates, stated in units of parts per million ranging from 1:300,000 (˜3 parts per million (ppm)) to 1:1000 (1000 ppm). PBMC gene expression data were normalized by the scaled frequency normalization method as described above. […] The filter which removes transcripts called absent in all samples is based upon the absent/present decision call made by the […] 3.2 software, which reflects the relative intensity of hybridization of the labeled probes to perfectly matched oligonucleotides versus hybridization to mismatched oligonucleotides for each transcript on the HgU95A chip. The filter that removes transcripts with a frequency of less than 10 ppm in all samples is designed to remove low abundance transcripts which may have variable expression in technical replicates. […] Changes from pretreatment levels were calculated based on log-transformed expression levels. […] Pairwise correlations were calculated to assess the association between individually derived exposure metrics and gene expression levels measured by HgU95A Affymetrix microarrays during the course of therapy. Correlations were run for two pharmacokinetic parameters—cumulative AUC and cumulative AUCsum, and for four measures of expression level—log2-transformed scaled frequency at 8 weeks, log2-transformed scaled frequency at 16 weeks, the difference between log2-transformed scaled frequency at 8 weeks and baseline, and the difference between log2-transformed scaled frequency at 16 weeks and baseline. Spearman's rank correlations, which are not sensitive to potential non-normal distributional properties of the pharmacokinetic parameters, were computed. The p-value for the hypothesis that the correlation was equal to 0 was calculated for each pairwise correlation. […] The results of permutation tests run for cumulative AUCsum vs expression change at 8 weeks and at 16 weeks are shown in Tables 5a and 5b. […] Table 6 also includes FARP1 (Accession No. A1701049). […] Accession numbers for the 19 transcripts are presented in Table 6, along with columns indicating the coefficient of variation observed in healthy individuals (% CV), the p-value observed in the Spearman correlation, the actual magnitude of the correlation, and the corresponding gene names.

[3] = Pharmacodynamic correlation of drug exposure metrics to severity and duration of adverse events; assay type: in vivo, human
Procedure: For the cumulative dose drug exposure, cumulative AUCsum was determined. Each patients' specific dosing history while on trial medication was determined and used to derive respective AUCs experienced by each patient for the duration of time from start of treatment to time of highest severity adverse event. This test included all the data, irrespective of AE severity, and was analyzed using the asymptotic Mantel-Haenszel Test for Ordinal Association. A severity score of “1” indicating the lowest severity and “3” indicating the highest severity was used. […] Pharmacokinetic parameters were grouped into low, medium and high categories with an equal number of patients in each category. […] Estimation of cumulative exposure was determined for each patient as described above. Duration of an AE was determined by calculating the time interval for which a given patient experienced a given AE. […] The correlations between AE duration and the continuous pharmacokinetic variables were calculated using Spearman rank correlation test (SAS Institute Inc., SAS® […] REFERENCE, Version 8, Cary, N C: SAS Institute Inc., 1999). […] Results of the pharmacodynamic analysis using AUCsum (discrete predictor), cumulative AUCsum (cumulative predictor variable), Ceoi (peak exposure predictor) are shown in Table 12 as derived from 49 differing adverse events recorded for those patients included in the population analysis. […] Cumulative AUCsum refers to aggregate AUCsum based on individual patient dosing history. Ceoi is the CCI-779 concentration observed at end of infusion.

[4] = clinical; conditions: human, whole blood
Procedure: In a randomized, double-blind, multicenter trial, once-weekly intravenous doses of 25-, 75-, or 250-mg of CCI-779 were administered to patients with advanced renal cancer that were either previously treated, or untreated and not appropriate candidates for high dose interlukin-2 therapy. Whole blood for CCI-779 and metabolite concentrations was drawn for population pharmacokinetic analysis, and Bayesian-predicted area under the concentration-time curves for parent drug (AUC), parent plus metabolite (AUCsum), and cumulative AUC and AUCsum were derived.
For CCI-779 clearance, factors for dose, attenuation of exposure with multiple-dose, and effect of body surface area were included.
The following examples were based on a randomized, double-blind, multicenter, outpatient phase 2 study of CCI-779 administered by 30 minute intravenous infusion (via an automatic dispensing pump) in patients with advanced RCC. Eligible patients were randomly assigned to treatment in a 1:1:1 ratio to receive 25 mg, 75 mg, or 250 mg of CCI-779 weekly until evidence of disease progression.
Full pharmacokinetic profiling was planned in a subset of patients, with remaining patients to provide sparse sampling.
The bioanalytical method for CCI-779 was performed using whole blood in a liquid chromatography/tandem mass spectrometry (LC/MS/MS) procedure with deuterated internal standard.
In order to characterize the pharmacokinetic profiles of patients providing sparse blood sampling, fully and sparsely sampled patient data were analyzed collectively using a population pharmacokinetic method and the NONMEM application (version 1.0, Revision 5.0 on Windows NT 4.0 computer with Pentium processor, NONMEM Project Group, University of California at San Francisco, Calif.). […] Data were therefore modeled separately and segregated by analyte into two separate data sets with dose, time/duration of administration, and demographic information. […] Construction of the NONMEM infile was performed using SAS (version 8.1) on a Sun Microsystems mainframe computer with Sun OS 5.8. […] In both cases, the model-derived value for AUC for a given patient and analyte were obtained from the quotient of CCI-779 Dose/Clearance (CL), in which CL was obtained from Bayesian estimation and the POSTHOC option of NONMEM.
During model building, an exponential error model was applied to the kinetic model.

half-life [1]: ~14 h
clearance ([1]; 25 mg): ~333 mL/min
clearance ([1]; 250 mg): ~1670 mL/min
clearance ([4]; intravenous): 24.2 mL/min
clearance ([4]; iv): 23.2 mL/min
Compound: CO[C@H]1C[C@@H]2CC[C@@H](C)[C@@](O)(O2)C(=O)C(=O)N2CCCC[C@H]2C(=O)O[C@H]([C@H](C)C[C@@H]2CC[C@@H](OC(=O)C(C)(CO)CO)[C@H](OC)C2)CC(=O)[C@H](C)/C=C(\C)[C@@H](O)[C@@H](OC)C(=O)[C@H](C)C[C@H](C)/C=C/C=C/C=C/1C [CCI-779]
Correlation with AUCsum at 16 weeks: KIAA0857 ([2]; AB020664, P-value 0.0006): 0.69
Correlation with AUCsum at 8 weeks: KIAA0857 ([2]; AB020664, P-value 0.9627): 0.01
Correlation with AUCsum at 16 weeks: B4GALT3 ([2]; AF038661, P-value 0.0002): 0.73
Correlation with AUCsum at 8 weeks: B4GALT3 ([2]; AF038661, P-value 0.2589): 0.21
Correlation with AUCsum at 16 weeks: SLC25A11 ([2]; AF070548, P-value 0.0006): 0.69
Correlation with AUCsum at 8 weeks: SLC25A11 ([2]; AF070548, P-value 0.0881): 0.32
Correlation with AUCsum at 16 weeks: IKBKG ([2]; AF074382, P-value 0.0007): 0.68
Correlation with AUCsum at 8 weeks: IKBKG ([2]; AF074382, P-value 0.1013): 0.30
Correlation with AUCsum at 16 weeks: UNK_AI147237 ([2]; AI147237, P-value 0.0004): 0.70
Correlation with AUCsum at 8 weeks: UNK_AI147237 ([2]; AI147237, P-value 0.0877): 0.32
Correlation with AUCsum at 16 weeks: COX6A1 ([2]; AI540925, P-value 0.0002): −0.73
Correlation with AUCsum at 8 weeks: COX6A1 ([2]; AI540925, P-value 0.0050): −0.50
Correlation with AUCsum at 16 weeks: FARP1 ([2]; AI701049, P-value 0.001): 0.66
Correlation with AUCsum at 8 weeks: FARP1 ([2]; AI701049, P-value 0.0089): 0.47
Correlation with AUCsum at 16 weeks: U2AF65 ([2]; AI762438, P-value 0.0001): 0.74
Correlation with AUCsum at 8 weeks: U2AF65 ([2]; AI762438, P-value 0.2209): 0.23
Correlation with AUCsum at 16 weeks: UNK_AL022318 ([2]; AL022318, P-value 0.0005): 0.69
Correlation with AUCsum at 8 weeks: UNK_AL022318 ([2]; AL022318, P-value 0.2617): 0.21
Correlation with AUCsum at 16 weeks: UNK_AL046394 ([2]; AL046394, P-value 0.0002): 0.72
Correlation with AUCsum at 8 weeks: UNK_AL046394 ([2]; AL046394, P-value 0.0999): 0.31
Correlation with AUCsum at 16 weeks: UNK_H98552 ([2]; H98552, P-value 0.0003): 0.71
Correlation with AUCsum at 8 weeks: UNK_H98552 ([2]; H98552, P-value 0.0308): 0.39
Correlation with AUCsum at 16 weeks: DPEP1 ([2]; J05257, P-value 0.0005): 0.69
Correlation with AUCsum at 8 weeks: DPEP1 ([2]; J05257, P-value 0.0348): 0.39
Correlation with AUCsum at 16 weeks: CYP11A ([2]; M14565, P-value 0.0006): 0.69
Correlation with AUCsum at 8 weeks: CYP11A ([2]; M14565, P-value 0.0838): 0.32
Correlation with AUCsum at 16 weeks: TNNT1 ([2]; M19309, P-value 0.0004): 0.70
Correlation with AUCsum at 8 weeks: TNNT1 ([2]; M19309, P-value 0.2684): 0.21
Correlation with AUCsum at 16 weeks: PML ([2]; M79463, P-value 0.0007): 0.68
Correlation with AUCsum at 8 weeks: PML ([2]; M79463, P-value 0.0378): 0.38
Correlation with AUCsum at 16 weeks: SLC19A1 ([2]; U17566, P-value 0.0007): 0.68
Correlation with AUCsum at 8 weeks: SLC19A1 ([2]; U17566, P-value 0.1220): 0.29
Correlation with AUCsum at 16 weeks: USP11 ([2]; U44839, P-value 0.0001): 0.76
Correlation with AUCsum at 8 weeks: USP11 ([2]; U44839, P-value 0.3998): 0.16
Correlation with AUCsum at 16 weeks: ACTN4 ([2]; U48734, P-value 0.0003): 0.71
Correlation with AUCsum at 8 weeks: ACTN4 ([2]; U48734, P-value 0.0721): 0.33
Correlation with AUCsum at 16 weeks: FOXM1 ([2]; U90917, P-value 0.0001): 0.75
Correlation with AUCsum at 8 weeks: FOXM1 ([2]; U90917, P-value 0.206): 0.24
Correlation with AUCsum at 16 weeks: SULT2B1 ([2]; U92315, P-value 0.0005): 0.69
Correlation with AUCsum at 8 weeks: SULT2B1 ([2]; U92315, P-value 0.1066): 0.30
Spearman correlation to Ceoi: duration of Pain abdomen ([3]; N patients 13, P-value 0.01): 0.01 (0.873)
Correlation to Ceoi: severity of Myalgia ([3]; N patients 13, P-value 0.013, Ceoi = CCI-779 concentration at end of infusion): 0.013 (0.414)
Correlation to Ceoi: severity of Fever ([3]; N patients 17, P-value 0.022): 0.022 (0.402)
Spearman correlation to Ceoi: duration of Fever ([3]; N patients 17, P-value 0.04): 0.04 (−0.626)
Spearman correlation to Ceoi: duration of Anorexia ([3]; N patients 22, P-value 0.015): 0.015 (0.597)
